Laboratory results: patent US6358885B1, “Substituted phenylheterocyclic herbicides” (Mississippi State University, priority 1992, dated 2002)

Key:
Experiment in all cases: Test G preemergence/postemergence greenhouse plant response rating 0 to 100
sandbur = type: in vivo, Cenchrus echinatus; conditions: 0 to 100 scale
From the text: (§1) Seeds, rhizomes, or plant parts of alfalfa (Medicago ativa), annual bluegrass (Poa annua), bermudagrass (Cynodon dactylon), broadleaf signalgrass (Brachiaria plantaginea), common purslane (Portulaca oleracea), common ragweed (Ambrosia elatior), […] (Paspalum dilatatum), goosegrass (Eleusine indica), guineagrass (Panicum maximum), […] exaltata), johnsongrass (Sorghum halepense), large crabgrass (Digitaria sanguinalis), peanut (Arachis hypoagaea), pitted morningglory (Ipomoea lacunosa), purple nutsedge (Cyperus rotundus), sandbur (Cenchrus echinatus), smooth crabgrass (Digitaria ischaemum) and yellow nutsedge (Cyperus esculentus) were planted into greenhouse pots containing greenhouse planting medium. Each pot contained only one plant species. The test compound was dissolved in a non-phytotoxic solvent and applied preemergence and/or postemergence to the plants. Preemergence applications were made within one day of planting the seeds or plant parts. Postemergence applications were applied when the plants were in the two to four leaf stage (three to twenty cm). Test chemicals were dissolved in a non-phytotoxic solvent and applied preemergence and postemergence to the plants. Untreated control plants and treated plants were placed in the greenhouse and visually evaluated for injury at 13 to 21 days after herbicide application. […] A dash (-) response indicates no test result.

guineagrass = type: in vivo, Panicum maximum; conditions: 0 to 100 scale
From the text: as §1

purple nutsedge = type: in vivo, Cyperus rotundus; conditions: Rate 125 g/ha, 0 to 100 scale
From the text: as §1

alfalfa = type: in vivo, Medicago ativa; conditions: 0 to 100 scale
From the text: as §1

common ragweed = type: in vivo, Ambrosia elatior; conditions: 0 to 100 scale
From the text: as §1

annual bluegrass = type: in vivo, Poa annua; conditions: 0 to 100 scale
From the text: as §1

itchgrass = type: in vivo, Rottboellia exaltata; conditions: 0 to 100 scale
From the text: as §1

broadleaf signalgrass = type: in vivo, Brachiaria plantaginea; conditions: 0 to 100 scale
From the text: as §1

goosegrass = type: in vivo, Eleusine indica; conditions: 0 to 100 scale
From the text: as §1

dallisgrass = type: in vivo, Paspalum dilatatum; conditions: 0 to 100 scale
From the text: as §1

common purslane = type: in vivo, Portulaca oleracea; conditions: 0 to 100 scale
From the text: as §1

johnsongrass = type: in vivo, Sorghum halepense; conditions: 0 to 100 scale
From the text: as §1

bermudagrass = type: in vivo, Cynodon dactylon; conditions: 0 to 100 scale
From the text: as §1

large crabgrass = type: in vivo, Digitaria sanguinalis; conditions: 0 to 100 scale
From the text: as §1

smooth crabgrass = type: in vivo, Digitaria ischaemum; conditions: 0 to 100 scale
From the text: as §1

pitted morningglory = type: in vivo, Ipomoea lacunosa; conditions: 0 to 100 scale
From the text: as §1

## CC(C)Oc1cc(-c2nn3c(c2Cl)CCCC3)c(F)cc1Cl [Compound 21]
sandbur; POSTEMERGENCE, Rate 125 g/ha
  Plant response rating, S. Sandbur: 0
sandbur; POSTEMERGENCE, Rate 250 g/ha
  Plant response rating, S. Sandbur: 0
sandbur; PREEMERGENCE, Rate 125 g/ha
  Plant response rating, S. Sandbur: 0
sandbur; PREEMERGENCE, Rate 250 g/ha
  Plant response rating, S. Sandbur: 0
guineagrass; POSTEMERGENCE, Rate 125 g/ha
  Plant response rating, Guineagrass: 0
guineagrass; POSTEMERGENCE, Rate 250 g/ha
  Plant response rating, Guineagrass: 0
guineagrass; PREEMERGENCE, Rate 125 g/ha
  Plant response rating, Guineagrass: 100
guineagrass; PREEMERGENCE, Rate 250 g/ha
  Plant response rating, Guineagrass: 0
Purple nutsedge; POSTEMERGENCE
  Plant response rating, Purple Nutsedge: 0
Purple nutsedge; PREEMERGENCE
  Plant response rating, Purple Nutsedge: 0
alfalfa; POSTEMERGENCE, Rate 125 g/ha
  Plant response rating, Alfalfa Var.: 0
alfalfa; POSTEMERGENCE, Rate 250 g/ha
  Plant response rating, Alfalfa Var.: 0
alfalfa; PREEMERGENCE, Rate 125 g/ha
  Plant response rating, Alfalfa Var.: 0
alfalfa; PREEMERGENCE, Rate 250 g/ha
  Plant response rating, Alfalfa Var.: 0
Common ragweed; POSTEMERGENCE, Rate 125 g/ha
  Plant response rating, Cmn Ragweed: 0
Common ragweed; POSTEMERGENCE, Rate 250 g/ha
  Plant response rating, Cmn Ragweed: 100
Common ragweed; PREEMERGENCE, Rate 125 g/ha
  Plant response rating, Cmn Ragweed: 50
Common ragweed; PREEMERGENCE, Rate 250 g/ha
  Plant response rating, Cmn Ragweed: 50
Annual bluegrass; POSTEMERGENCE, Rate 125 g/ha
  Plant response rating, Ann Bluegrass: 0
Annual bluegrass; POSTEMERGENCE, Rate 250 g/ha
  Plant response rating, Ann Bluegrass: 0
Annual bluegrass; PREEMERGENCE, Rate 125 g/ha
  Plant response rating, Ann Bluegrass: 30
Annual bluegrass; PREEMERGENCE, Rate 250 g/ha
  Plant response rating, Ann Bluegrass: 0
itchgrass; POSTEMERGENCE, Rate 125 g/ha
  Plant response rating, Itchgrass: 0
itchgrass; POSTEMERGENCE, Rate 250 g/ha
  Plant response rating, Itchgrass: 0
itchgrass; PREEMERGENCE, Rate 125 g/ha
  Plant response rating, Itchgrass: 60
itchgrass; PREEMERGENCE, Rate 250 g/ha
  Plant response rating, Itchgrass: 0
Broadleaf signalgrass; POSTEMERGENCE, Rate 125 g/ha
  Plant response rating, Brdlf Sgnlgrass: 0
Broadleaf signalgrass; POSTEMERGENCE, Rate 250 g/ha
  Plant response rating, Brdlf Sgnlgrass: 0
Broadleaf signalgrass; PREEMERGENCE, Rate 125 g/ha
  Plant response rating, Brdlf Sgnlgrass: 0
Broadleaf signalgrass; PREEMERGENCE, Rate 250 g/ha
  Plant response rating, Brdlf Sgnlgrass: 0
goosegrass; POSTEMERGENCE, Rate 125 g/ha
  Plant response rating, Goosegrass: 0
goosegrass; POSTEMERGENCE, Rate 250 g/ha
  Plant response rating, Goosegrass: 0
goosegrass; PREEMERGENCE, Rate 125 g/ha
  Plant response rating, Goosegrass: 100
goosegrass; PREEMERGENCE, Rate 250 g/ha
  Plant response rating, Goosegrass: 70
dallisgrass; POSTEMERGENCE, Rate 125 g/ha
  Plant response rating, Dallisgrass: 0
dallisgrass; POSTEMERGENCE, Rate 250 g/ha
  Plant response rating, Dallisgrass: 0
dallisgrass; PREEMERGENCE, Rate 125 g/ha
  Plant response rating, Dallisgrass: 20
dallisgrass; PREEMERGENCE, Rate 250 g/ha
  Plant response rating, Dallisgrass: 40
Common purslane; POSTEMERGENCE, Rate 125 g/ha
  Plant response rating, Cmn Purslane: 70
Common purslane; POSTEMERGENCE, Rate 250 g/ha
  Plant response rating, Cmn Purslane: 90
Common purslane; PREEMERGENCE, Rate 125 g/ha
  Plant response rating, Cmn Purslane: 100
Common purslane; PREEMERGENCE, Rate 250 g/ha
  Plant response rating, Cmn Purslane: 0
johnsongrass; POSTEMERGENCE, Rate 125 g/ha
  Plant response rating, Johnsongrass: 0
johnsongrass; POSTEMERGENCE, Rate 250 g/ha
  Plant response rating, Johnsongrass: 0
johnsongrass; PREEMERGENCE, Rate 125 g/ha
  Plant response rating, Johnsongrass: 30
johnsongrass; PREEMERGENCE, Rate 250 g/ha
  Plant response rating, Johnsongrass: 0
bermudagrass; POSTEMERGENCE, Rate 125 g/ha
  Plant response rating, Bermudagrass: 0
bermudagrass; POSTEMERGENCE, Rate 250 g/ha
  Plant response rating, Bermudagrass: 0
bermudagrass; PREEMERGENCE, Rate 125 g/ha
  Plant response rating, Bermudagrass: 20
bermudagrass; PREEMERGENCE, Rate 250 g/ha
  Plant response rating, Bermudagrass: 0
Large crabgrass; POSTEMERGENCE, Rate 125 g/ha
  Plant response rating, Large Crabgrass: 0
Large crabgrass; POSTEMERGENCE, Rate 250 g/ha
  Plant response rating, Large Crabgrass: 0
Large crabgrass; PREEMERGENCE, Rate 125 g/ha
  Plant response rating, Large Crabgrass: 100
Large crabgrass; PREEMERGENCE, Rate 250 g/ha
  Plant response rating, Large Crabgrass: 60
Smooth crabgrass; POSTEMERGENCE, Rate 125 g/ha
  Plant response rating, Smooth Crabgras: 0
Smooth crabgrass; POSTEMERGENCE, Rate 250 g/ha
  Plant response rating, Smooth Crabgras: 0
Smooth crabgrass; PREEMERGENCE, Rate 125 g/ha
  Plant response rating, Smooth Crabgras: 70
Smooth crabgrass; PREEMERGENCE, Rate 250 g/ha
  Plant response rating, Smooth Crabgras: 20
Pitted morningglory; POSTEMERGENCE, Rate 125 g/ha
  Plant response rating, Pit Morninglory: 0
Pitted morningglory; POSTEMERGENCE, Rate 250 g/ha
  Plant response rating, Pit Morninglory: 20
Pitted morningglory; PREEMERGENCE, Rate 125 g/ha
  Plant response rating, Pit Morninglory: 0
Pitted morningglory; PREEMERGENCE, Rate 250 g/ha
  Plant response rating, Pit Morninglory: 20
